From PubChem BioAssay AID330 (DTP/NCI, 2004)
Where “and” joins values, the source holds several entries; their conditions need not be identical. Equal values may be shown once. Inconclusive results and toxic doses are left out. Rule for the calls: active = survival T/C of 150% or more; inactive = T/C below 125% in these data. Peptide text beside a SMILES is read from it.

Tested on: P388 leukemia ip, CD2F1 mice, survival T/C
Test: NCI In Vivo Anticancer Drug Screen. Data for tumor model P388 Leukemia (intraperitoneal) in CD2F1 (CDF1) mice
Details: endpoint: median survival time, higher = longer survival
In short: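 Mice carrying the transplanted tumor received test compound or vehicle. Survival was recorded in each group, and the value is the treated-group measurement divided by that of the vehicle-treated control group.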

[1] = dose: 50.0 mg/kg/injection, schedule: Q01DX005 (ip), vehicle: Klucel (hydroxypropylcellulose) (HPC)
[2] = dose: 60.0 mg/kg/injection, schedule: Q01DX005 (ip), vehicle: saline with Tween-80
[3] = dose: 120.0 mg/kg/injection, schedule: Q01DX005 (ip), vehicle: saline with Tween-80
[4] = dose: 240.0 mg/kg/injection, schedule: Q01DX005 (ip), vehicle: saline with Tween-80
[5] = dose: 100.0 mg/kg/injection, schedule: Q01DX009 (ip), vehicle: saline with Tween-80
[6] = dose: 200.0 mg/kg/injection, schedule: Q01DX009 (ip), vehicle: saline with Tween-80
[7] = dose: 400.0 mg/kg/injection, schedule: Q01DX009 (ip), vehicle: saline with Tween-80
[8] = dose: 100.0 mg/kg/injection, schedule: Q01DX005 (ip), vehicle: Klucel (hydroxypropylcellulose) (HPC)
[9] = dose: 200.0 mg/kg/injection, schedule: Q01DX005 (ip), vehicle: Klucel (hydroxypropylcellulose) (HPC)
[10] = dose: 50.0 mg/kg/injection, schedule: Q01DX005 (ip), vehicle: saline
[11] = dose: 100.0 mg/kg/injection, schedule: Q01DX005 (ip), vehicle: saline
[12] = dose: 200.0 mg/kg/injection, schedule: Q01DX005 (ip), vehicle: saline
[13] = dose: 100.0 mg/kg/injection, schedule: Q04DX003 (ip), vehicle: saline
[14] = dose: 200.0 mg/kg/injection, schedule: Q04DX003 (ip), vehicle: saline
[15] = dose: 400.0 mg/kg/injection, schedule: Q04DX003 (ip), vehicle: saline
[16] = dose: 100.0 mg/kg/injection, schedule: Q04DX002 (ip), vehicle: saline with Tween-80
[17] = dose: 200.0 mg/kg/injection, schedule: Q04DX002 (ip), vehicle: saline with Tween-80

Measured: T/C

CCOC(=O)c1c[n+](C2OC(COC(=O)c3ccccc3)C(OC(=O)c3ccccc3)C2OC(=O)c2ccccc2)ccc1N (configuration not stated)
inactive: dose: 12.5 mg/kg/injection, schedule: Q01DX005 (ip), vehicle: saline with Tween-80 98 % of control | dose: 25.0 mg/kg/injection, schedule: Q01DX005 (ip), vehicle: saline with Tween-80 107 % of control | dose: 50.0 mg/kg/injection, schedule: Q01DX005 (ip), vehicle: saline with Tween-80 105 % of control and 92 % of control

Cn1c(=O)oc2cc(N)c(Cl)cc21
inactive: dose: 12.5 mg/kg/injection, schedule: Q01DX005 (ip), vehicle: Klucel (hydroxypropylcellulose) (HPC) 88 % of control | dose: 25.0 mg/kg/injection, schedule: Q01DX005 (ip), vehicle: Klucel (hydroxypropylcellulose) (HPC) 94 % of control | [1] 100 % of control and 87 % of control

CCC(c1ccc(CN(C)C)c(O)c1)C(CC)c1ccc(CN(C)C)c(O)c1 (configuration not stated)
inactive: [2] 93 % of control | [3] 91 % of control | [4] 102 % of control

CC(C)(C)C(=O)Nc1ccc(C(C)(C)C)cc1C(O)(C(F)(F)F)C(F)(F)F
inactive: dose: 100.0 mg/kg/injection, schedule: Q01DX009 (ip), vehicle: Klucel (hydroxypropylcellulose) (HPC) 92 % of control | dose: 200.0 mg/kg/injection, schedule: Q01DX009 (ip), vehicle: Klucel (hydroxypropylcellulose) (HPC) 88 % of control

O=CNc1ccc(O)cc1
inactive: [5] 100 % of control | [6] 109 % of control | [7] 118 % of control

O=S(=O)(O)CC(O)CN(CCO)CCO (configuration not stated)
inactive: dose: 60.0 mg/kg/injection, schedule: Q01DX005 (ip), vehicle: saline 108 % of control | dose: 120.0 mg/kg/injection, schedule: Q01DX005 (ip), vehicle: saline 102 % of control | dose: 240.0 mg/kg/injection, schedule: Q01DX005 (ip), vehicle: saline 100 % of control

Cc1ccc(C2OC3=C(Nc4ccc([N+](=O)[O-])cc4N3)C2=O)cc1 (configuration not stated)
inactive: dose: 60.0 mg/kg/injection, schedule: Q01DX005 (ip), vehicle: Klucel (hydroxypropylcellulose) (HPC) 90 % of control | dose: 120.0 mg/kg/injection, schedule: Q01DX005 (ip), vehicle: Klucel (hydroxypropylcellulose) (HPC) 93 % of control | dose: 240.0 mg/kg/injection, schedule: Q01DX005 (ip), vehicle: Klucel (hydroxypropylcellulose) (HPC) 96 % of control

CC(C)=C1NC(=O)NC1=O
inactive: [1] 101 % of control | [8] 101 % of control | [9] 102 % of control

COC(=O)CSc1nnc(CSc2ccc(Cl)cc2)n1-c1ccccc1
inactive: [2] 93 % of control | [3] 92 % of control | [4] 96 % of control

NCC(N)CCC(=O)O (configuration not stated)
inactive: [10] 99 % of control | [11] 105 % of control | [12] 105 % of control

CC(C)C(C)CS(=O)(=O)OCCCCOS(=O)(=O)CC(C)C(C)C (configuration not stated)
inactive: dose: 50.0 mg/kg/injection, schedule: Q01DX005 (ip), vehicle: suspension in saline 103 % of control | dose: 100.0 mg/kg/injection, schedule: Q01DX005 (ip), vehicle: suspension in saline 105 % of control | dose: 200.0 mg/kg/injection, schedule: Q01DX005 (ip), vehicle: suspension in saline 112 % of control

Cn1cnc2cc(NCCO)c([N+](=O)[O-])cc2c1=O
inactive: [13] 105 % of control | [14] 119 % of control | [15] 96 % of control

COC(=O)[C@@]12OC[C@]34[C@H]([C@@H](O)[C@@H]1O)[C@@]1(C)C=C(OC5OC(CO)C(O)C(O)C5O)C(=O)C(C)[C@@H]1C[C@H]3OC(=O)[C@H](OC(=O)C=C(C)C)[C@@H]24 (some centres not stated)
inactive: dose: 0.25 mg/kg/injection, schedule: Q01DX009 (ip), vehicle: saline + alcohol 107 % of control | dose: 0.5 mg/kg/injection, schedule: Q01DX009 (ip), vehicle: saline + alcohol 112 % of control | dose: 1.0 mg/kg/injection, schedule: Q01DX009 (ip), vehicle: saline + alcohol 112 % of control | dose: 2.0 mg/kg/injection, schedule: Q01DX009 (ip), vehicle: saline + alcohol 106 % of control | dose: 4.0 mg/kg/injection, schedule: Q01DX009 (ip), vehicle: saline + alcohol 112 % of control | dose: 8.0 mg/kg/injection, schedule: Q01DX009 (ip), vehicle: saline + alcohol 111 % of control

CNC(=O)Oc1[nH]c(=O)ncc1I
inactive: dose: 50.0 mg/kg/injection, schedule: Q04DX002 (ip), vehicle: saline with Tween-80 100 % of control | [16] 108 % of control and 109 % of control and 110 % of control | [17] 105 % of control and 116 % of control

COc1cc(C(c2cc3c(cc2O)OCO3)N2CCN(C(c3cc(OC)c(O)c(OC)c3)c3cc4c(cc3O)OCO4)CC2)cc(OC)c1O (configuration not stated)
inactive: [2] 91 % of control | [3] 89 % of control | [4] 91 % of control

CC1C2OC(=O)C1(C)c1ccccc1C2=O (configuration not stated)
inactive: dose: 12.5 mg/kg/injection, schedule: Q01DX001 (ip), vehicle: Klucel (hydroxypropylcellulose) (HPC) 109 % of control | dose: 25.0 mg/kg/injection, schedule: Q01DX001 (ip), vehicle: Klucel (hydroxypropylcellulose) (HPC) 99 % of control | dose: 50.0 mg/kg/injection, schedule: Q01DX001 (ip), vehicle: Klucel (hydroxypropylcellulose) (HPC) 103 % of control

COC1=C(Br)C(O)C2(C=C1Br)CC(C(=O)NCC(O)COc1c(Br)cc(C(O)CNC(=O)C3=NOC4(C=C(Br)C(OC)=C(Br)C4O)C3)cc1Br)=NO2 (configuration not stated)
inactive: dose: 25.0 mg/kg/injection, schedule: Q01DX009 (ip), vehicle: saline + Tween-80 + alcohol 110 % of control | dose: 50.0 mg/kg/injection, schedule: Q01DX009 (ip), vehicle: saline + Tween-80 + alcohol 112 % of control and 92 % of control | dose: 100.0 mg/kg/injection, schedule: Q01DX009 (ip), vehicle: saline + Tween-80 + alcohol 112 % of control and 92 % of control | dose: 200.0 mg/kg/injection, schedule: Q01DX009 (ip), vehicle: saline + Tween-80 + alcohol 102 % of control

CCC1C[N+]2(C)CCc3cc(OC)c(OC)cc3C2CC1=O (configuration not stated)
inactive: dose: 12.5 mg/kg/injection, schedule: Q01DX009 (ip), vehicle: saline 94 % of control | dose: 25.0 mg/kg/injection, schedule: Q01DX009 (ip), vehicle: saline 93 % of control | dose: 50.0 mg/kg/injection, schedule: Q01DX009 (ip), vehicle: saline with Tween-80 106 % of control | dose: 50.0 mg/kg/injection, schedule: Q01DX009 (ip), vehicle: saline 100 % of control

O=C1c2cccc3cc([N+](=O)[O-])cc(c23)C(=O)N1CCN1CCN(CCN2C(=O)c3cccc4cc([N+](=O)[O-])cc(c34)C2=O)CC1
inactive: [16] 95 % of control | [17] 98 % of control | dose: 400.0 mg/kg/injection, schedule: Q04DX002 (ip), vehicle: saline with Tween-80 90 % of control

NC(=O)c1c(-c2ccccc2)nc2sccn12
inactive: dose: 100.0 mg/kg/injection, schedule: Q01DX001 (ip), vehicle: Klucel (hydroxypropylcellulose) (HPC) 98 % of control | dose: 200.0 mg/kg/injection, schedule: Q01DX001 (ip), vehicle: Klucel (hydroxypropylcellulose) (HPC) 90 % of control | dose: 400.0 mg/kg/injection, schedule: Q01DX001 (ip), vehicle: Klucel (hydroxypropylcellulose) (HPC) 92 % of control

COC(=O)/C=C1\C(=O)OCC1(C)C
inactive: [13] 100 % of control | [14] 104 % of control | [15] 103 % of control

COCCOC(=O)CCCCC(=O)OCCOC
inactive: [5] 100 % of control | dose: 100.0 mg/kg/injection, schedule: Q04DX003 (ip), vehicle: saline sonified 100 % of control | [6] 104 % of control | dose: 200.0 mg/kg/injection, schedule: Q04DX003 (ip), vehicle: saline sonified 100 % of control | [7] 109 % of control | dose: 400.0 mg/kg/injection, schedule: Q04DX003 (ip), vehicle: saline sonified 95 % of control

NC(CC(=O)O)C(=O)NC(CC(=O)O)C(=O)O (stereo not drawn) (H-Asp-Asp-OH; configuration not given here)
inactive: [10] 101 % of control | [11] 99 % of control | [12] 97 % of control

CNc1c[nH]c(=O)[nH]c1=O
inactive: [1] 108 % of control | [8] 105 % of control | [9] 96 % of control

c1ccc2c[n+](CCCCCCCCCC[n+]3ccc4ccccc4c3)ccc2c1
inactive: dose: 1.25 mg/kg/injection, schedule: Q01DX009 (ip), vehicle: saline 94 % of control | dose: 2.5 mg/kg/injection, schedule: Q01DX009 (ip), vehicle: saline 101 % of control | dose: 5.0 mg/kg/injection, schedule: Q01DX009 (ip), vehicle: saline 102 % of control
